Counter-ions that a name gives are not always drawn. Like-named read-outs stand apart in the source and are kept apart here.
Legend:
[1] = biological target: T1, Human vitronectin receptor (αvβ3) (Homo sapiens, UniProt P05106+P06756); test: Vitronectin adhesion assay (solid phase receptor assay, competition with biotinylated vitronectin); type: binding; conditions: read-out: AvB3 IC50
T1 construct: Human vitronectin receptor (αvβ3) was purified from human placenta; from tissue; host or cells: human placenta
In short: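 Purified human αvβ3 coated overnight at 4 °C in TBS with 1.0 mM Ca++, Mg++, Mn++, pH 7.4; compounds (top final 1.0×10^−4 M) competed with 1 nM biotinylated vitronectin for 2 h at room temperature. Bound ligand detected by HRP anti-biotin/OPD at A450; values normalized to no-competitor controls, four-parameter curve fit.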

[2] = tested on: platelet rich plasma; test: Human platelet rich plasma assay (ADP induced platelet aggregation); type: cell-based; conditions: read-out: Human PRP
Method: Human Platelet Rich Plasma Assays
Healthy aspirin free donors were selected from a pool of volunteers. The harvesting of platelet rich plasma and subsequent ADP induced platelet aggregation assays were performed as described in Zucker, M. B., “Platelet Aggregation Measured by the Photometric Method”, Methods in Enzymology 169(1989):117-133. Standard venipuncture techniques using a butterfly allowed the withdrawal of 45 mL of whole blood into a 60 mL syringe containing 5 mL of 3.8% trisodium citrate. Following thorough mixing in the syringe, the anti-coagulated whole blood was transferred to a 50 mL conical polyethylene tube. The blood was centrifuged at room temperature for 12 minutes at 200×g to sediment non-platelet cells. Platelet rich plasma was removed to a polyethylene tube and stored at room temperature until used. Platelet poor plasma was obtained from a second centrifugation of the remaining blood at 2000×g for 15 minutes. Platelet counts are typically 300,000 to 500,000 per microliter. Platelet rich plasma (0.45 mL) was aliquoted into siliconized cuvettes and stirred (1100 rpm) at 37° C. for 1 minute prior to adding 50 uL of pre-diluted test compound. After 1 minute of mixing, aggregation was initiated by the addition of 50 uL of 200 uM ADP. Aggregation was recorded for 3 minutes in a Payton dual channel aggregometer (Payton Scientific, Buffalo, N.Y.). The percent inhibition of maximal response (saline control) for a series of test compound dilutions was used to determine a dose response curve.

[3] = biological target: T2, Human fibrinogen receptor (αIIbβ3) (Homo sapiens, UniProt P05106+P08514); test: Purified IIb/IIIa receptor assay (solid phase receptor assay, competition with biotinylated vitronectin); type: binding; conditions: read-out: IIb/IIIa IC50
T2 construct: Human fibrinogen receptor (αIIbβ3) was purified from outdated platelets; from tissue; host or cells: outdated human platelets
In short: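 Competition format: 1 nM biotinylated vitronectin plus test compound (highest 1.0×10^−4 M), 2 h at room temperature on wells coated with platelet-derived αIIbβ3. Buffer was TBS containing 1.0 mM Ca, Mg, Mn, pH 7.4. HRP anti-biotin readout at 450 nm; normalized to maximum binding, four-parameter curve fit.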

[4] = Homo sapiens, Platelet, ADP induced platelet aggregation in human platelet rich plasma

`COc1ccc(C(CC(=O)O)NC(=O)CNC(=O)c2cccc(NC(=N)N)c2)c(O)c1` (racemic) [Example 222, (±)β-[[2-[[[3-[(aminoiminomethyl)amino]phenyl]carbonyl]amino]acetyl]amino]-2-hydroxy-4-methoxybenzenepropanoic acid] was tested, and the IC50 [1] was 2.02 nM, the IC50 [2, 4] was > 200000 nM and the IC50 [3] was 112 nM.

`N=C(N)Nc1cccc(C(=O)NCC(=O)NC(CC(=O)O)c2ccc3c(c2)OCCO3)c1` (stereo not drawn) [Example 95, β-[[(2-[[[3-[(aminoiminomethyl)amino]phenyl]carbonyl]amino]acetyl]amino]-1,4-benzodioxin-6-propanoic acid, trifluoroacetate salt] was tested, and the IC50 [1] was 1.43 nM, the IC50 [2, 4] was > 200000 nM and the IC50 [3] was 25.4 nM.

In the case of `O=C(O)CC(NC(=O)CNC(=O)c1cccc(NC2=NCCCCC2)c1)c1cc(Cl)cc(Cl)c1O` (racemic) [Example 232, (±)3,5-dichloro-2-hydroxy-β-[[2-[[[3-[(3,4,5,6-tetrahydro-2H-azepin-7-yl)amino]phenyl]carbonyl]amino]acetyl]amino]benzenepropanoic acid, trifluoroacetate salt, monohydrate], the IC50 [1] is reported as 19.1 nM, the IC50 [2, 4] is reported as > 200000 nM and the IC50 [3] is reported as 12100 nM.

For `N#C/N=C(/NCc1cccnc1)Nc1cccc(C(=O)NCC(=O)NC(CC(=O)O)c2ccccc2)c1` (stereo not drawn) [Example 146, β-[[2-[[[3-[[(cyanoimino)[3-pyridinylmethyl)amino]methyl]amino]phenyl]carbonyl]amino]acetyl]amino]benzenepropanoic acid, bis(trifluoroacetate)salt], the IC50 [1] was 14.3 nM, the IC50 [2, 4] was > 200000 nM and the IC50 [3] was 879 nM.

`N=C(N)Nc1cccc(C(=O)NCC(=O)NC(CC(=O)O)c2cc(Cl)cc(Cl)c2O)c1` (racemic) [Example 225, (±)β-[[2-[[[3-[(aminoiminomethyl)amino]phenyl]carbonyl]amino]acetyl]amino]-3,5-dichloro-2-hydroxybenzenepropanoic acid, trifluoroacetate salt, monohydrate] was tested, and the IC50 [1] was 2.76 nM, the IC50 [2, 4] was > 20000 nM and the IC50 [3] was 471 nM.

In the case of `N=C(N)Nc1cccc(C(=O)NCC(=O)NC(CC(=O)O)c2ccc(-c3ccccc3)cc2)c1` (racemic) [Example 37, (±)β-[[2-[[[3-[(aminoiminomethyl)amino]phenyl]carbonyl]amino]acetyl]amino][1,1′-biphenyl]-4-propanoic acid, trifluoroacetate salt], the IC50 [1] is reported as 0.88 nM, the IC50 [2, 4] is reported as > 20000 nM and the IC50 [3] is reported as 13.9 nM.

In the case of `N#C/N=C(\NCc1ccccc1)Nc1cccc(C(=O)NCC(=O)NC(CC(=O)O)c2ccccc2)c1` (stereo not drawn) [Example 136, β-[[2-[[[3-[[(cyanoimino)[(phenylmethyl)amino]methyl]amino]phenyl]carbonyl]amino]acetyl]amino]benzenepropanoic acid], the IC50 [1] is reported as 54.4 nM, the IC50 [2, 4] is reported as > 20000 nM and the IC50 [3] is reported as 14200 nM.

`N=C(N)Nc1cccc(C(=O)NCC(=O)N[C@H](CSc2ccccc2C(=O)O)CC(=O)O)c1` [Example 72, 2-[[2S-[[2-[[[3-[(aminoiminomethyl)amino]phenyl]carbonyl]amino]acetyl]amino]-2-(carboxymethyl)ethyl]thio]benzoic acid, trifluoroacetate salt] was tested, and the IC50 [1] was 1.21 nM, the IC50 [2, 4] was > 200000 nM and the IC50 [3] was 152 nM.

With `O=C(O)CC(NC(=O)CNC(=O)c1cccc(NC2=NCCCN2)c1)c1cc(Cl)cc(Cl)c1` (racemic) [Example 200, (±)3,5-dichloro-β-[[2-[[[3-[(1,4,5,6-tetrahydropyrimidin-2-yl)amino]phenyl]carbonyl]amino]acetyl]amino]benzenepropanoic acid, trifluoroacetate salt] the IC50 [1] was 0.48 nM, the IC50 [2, 4] was > 200000 nM and the IC50 [3] was 1100 nM.

For `N=C(N)Nc1cc(C(=O)NCC(=O)NC(CC(=O)O)c2cc(C(F)(F)F)cc(C(F)(F)F)c2)cc(C(F)(F)F)c1` (racemic) [Example 39, (±)β-[[(2-[[[3-[(aminoiminomethyl)amino]-5-(trifluoromethyl)phenyl]carbonyl]amino]acetyl]amino]-3,5-bis(trifluoromethyl)benzenepropanoic acid, trifluoroacetate salt], the IC50 [1] was 12.2 nM, the IC50 [2, 4] was > 20000 nM and the IC50 [3] was 1540 nM.

In the case of `O=C(O)CC(NC(=O)CNC(=O)c1cccc(NC2=NCCN2)c1)c1cc(Cl)cc(Cl)c1` (racemic) [Example 191, (±)β-[[2-[[[3-[(4,5-dihydro-1H-imidazol-2-yl)amino]phenyl]carbonyl]amino]acetyl]amino]-3,5-dichlorobenzenepropanoic acid, trifluoroacetate salt], the IC50 [1] is reported as 0.49 nM, the IC50 [2, 4] is reported as > 20000 nM and the IC50 [3] is reported as 70.3 nM.

For `C#C[C@H](CC(=O)O)NC(=O)CNC(=O)c1c(F)c(F)cc(NC(=N)N)c1F` [Example 35, βS-[[2-[[[3-[(aminoiminomethyl)amino]-2,5,6-trifluorophenyl]carbonyl]amino]acetyl]amino]-4-pentynoic acid, trifluoroacetate salt], the IC50 [1] was 57.1 nM, the IC50 [2, 4] was 69500 nM and the IC50 [3] was 6.21 nM.

With `O=C(O)CC(NC(=O)CNC(=O)c1cccc(NC(=O)NCc2ccccc2)c1)c1ccc2c(c1)OCO2` (stereo not drawn) [Example 122, β-[[2-[[[3-[[[(phenylmethyl)amino]carbonyl]amino]phenyl]carbonyl]amino]acetyl]amino]-1,3-benzodioxole-5-propanoic acid] the IC50 [1] was 0.79 nM, the IC50 ([2]; Homo sapiens, Platelet) was > 20000 nM and the IC50 [3] was 420 nM.

In the case of `N=C(N)Nc1cccc(C(=O)NCC(=O)NC(CC(=O)O)CC(=O)O)c1` [Example 53, 3-[[2-[[[3-[(aminoiminomethyl)amino]phenyl]carbonyl]amino]acetyl]amino]pentanedioic acid, trifluoroacetate salt], the IC50 [1] is reported as 54.6 nM, the IC50 [2, 4] is reported as > 200000 nM and the IC50 [3] is reported as 930 nM.

In the case of `O=C(O)CC(NC(=O)CNC(=O)c1cccc(NC(=O)Nc2ccccc2)c1)c1cccnc1` (stereo not drawn) [Example 108, β-[[2-[[[3-[[(phenylamino]carbonyl]amino]phenyl]carbonyl]amino]acetyl]amino]pyridine-3-propanoic acid, trifluoroacetate salt], the IC50 [1] is reported as 25.2 nM, the IC50 [2, 4] is reported as > 200000 nM and the IC50 [3] is reported as 4870 nM.

In the case of `N=C(N)Nc1cccc(C(=O)NCC(=O)NC(CCSc2ccccc2C(=O)O)CC(=O)O)c1` (racemic) [60(B), (±)2-[3-[[2-[[[3-[(aminoiminomethyl)amino]phenyl)carbonyl]amino]acetyl]amino]-4-carboxybutyl]thio]benzoic acid, trifluoroacetate salt], the IC50 [1] is reported as 1.21 nM, the IC50 ([2]; ADP induced platelet aggregation in human platelet rich plasma) is reported as > 200000 nM and the IC50 [3] is reported as 72.7 nM.

With `N=C(N)Nc1cccc(C(=O)NCC(=O)NC(CC(=O)O)c2ccc3c(c2)OCO3)c1` (racemic) [Example 6, (±)β-[[2-[[[3-[(aminoiminomethyl)amino]phenyl]carbonyl]amino]acetyl]amino]-1,3-benzodioxole-5-propanoic acid, trifluoroacetate salt] the IC50 [1] was 1.04 nM, the IC50 [2, 4] was 80000 nM and the IC50 [3] was 15.9 nM.

For `N=C(N)Nc1cccc(C(=O)NCC(=O)NC(CC(=O)O)c2cc([N+](=O)[O-])ccc2O)c1` (racemic) [Example 226, (±)β-[[2-[[[3-[(aminoiminomethyl)amino]phenyl]carbonyl]amino]acetyl]amino]-2-hydroxy-5-nitrobenzenepropanoic acid, trifluoroacetate salt], the IC50 [1] was 7.07 nM, the IC50 [2, 4] was > 200000 nM and the IC50 [3] was 2910 nM.

With `O=C(O)CCNC(=O)Nc1cccc(C(=O)NCC(=O)NC(CC(=O)O)c2cccnc2)c1` (stereo not drawn) [Example 129, β-[[2-[[[3-[[[(2-carboxyethyl)amino]carbonyl]aminophenyl]carbonyl]amino]acetyl]amino]pyridine-3-propanoic acid, trifluoroacetate salt] the IC50 [1] was 68.9 nM, the IC50 [2, 4] was > 200000 nM and the IC50 [3] was 9460 nM.

In the case of `N=C(N)Nc1cccc(C(=O)NCC(=O)NC(CC(=O)O)c2cc(Br)cc(Br)c2O)c1` (racemic) [Example 227, (±)β-[[2-[[[3-[(aminoiminomethyl)amino]phenyl]carbonyl]amino]acetyl]amino]-3,5-dibromo-2-hydroxybenzenepropanoic acid, trifluoroacetate salt, monohydrate], the IC50 [1] is reported as 14.1 nM, the IC50 [2, 4] is reported as > 200000 nM and the IC50 [3] is reported as 2640 nM.
